According to patent US20220370416A1, “COMPOUNDS AND METHODS FOR TARGETED DEGRADATION OF KRAS” (Arvinas Operations, Inc., priority 2020, published 2022):

Legend:
HiBit-KRAS^G12C [1] = target: T1, HiBit-KRAS^G12C (Homo sapiens, UniProt P01116, G12C); experiment: HiBit degradation assay in SW1573 HiBit-KRas^G12C cells; assay type: cell-based; design: expressed in transfected cells; host or cells: SW1573 (clone E6), modified pcDNA3.1 vector, TK promoter; conditions: 0.1% DMSO, 24 hours; for DC50: read-out: KRas^G12C-HIBit (SW1573; 0.1% DMSO) DC50*
T1 sequence (P01116 1-186 isoform P01116-2 G12C limits assumed): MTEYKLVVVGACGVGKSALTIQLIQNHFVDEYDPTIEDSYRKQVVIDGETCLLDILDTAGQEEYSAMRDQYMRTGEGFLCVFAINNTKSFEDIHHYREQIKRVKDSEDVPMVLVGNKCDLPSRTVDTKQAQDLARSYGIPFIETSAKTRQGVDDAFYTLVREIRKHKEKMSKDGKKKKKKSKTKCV
How it was run: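 HiBit-KRAS G12C degradation was measured after a 24 h compound exposure (titrated 10 μM–20 nM) in engineered SW1573 cells. Lytic HiBit luminescence, expressed relative to DMSO controls, yielded DC50 and Dmax from 4-parameter fits. Concentrations causing ≥50% loss in alamar blue viability were omitted as cytotoxic.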

HiBit-KRAS^G12C [2] = target: T1, HiBit-KRAS^G12C; experiment: HiBit degradation assay in MiaPaCa-2 HiBit-KRas^G12C cells; assay type: cell-based; conditions: MIA PaCa-2, read-out: KRas^G12C-HiBiT (MiaPaCa; 0.1% DMSO) DMax, MiaPaCa-2 HiBit-KRas^G12C cells; 0.1% DMSO; 24 hours; maximum degradation
Protocol: Reagents. SW1573 (CRL-2170) and MiaPaCa-2 (CRL-1420) cells were purchased from ATCC. Both cell lines are […] for the G12C mutation in KRAS. SW1573 cells were cultured in DMEM+F12+Glutamax (+Sodium Bicarbonate, +sodium pyruvate, Thermofisher scientific, #10565) supplemented with 10% FBS (Thermofisher scientific, #2060357) and 1% Antibiotic-Antimycotic (Thermofisher scientific, #15240096). MiaPaCa-2 cells were cultured in DMEM+Glutamax media (Thermofisher scientific, #10566) supplemented with 10% FBS (Thermofisher scientific, #2060357) and 1% Antibiotic-Antimycotic (Thermofisher scientific, #15240096). For degradation assays, 384 well plates were purchased from Corning (Corning® CellBIND® 384-well Flat Clear Bottom Black Polystyrene Microplates, Low Flange, #3770). Gambogic acid was purchased from Selleckchem (#S2448). Alamar blue was purchased from Thermofisher scientific (A50101) and used according to manufacturer instructions. The Nano-Glo® HiBit Lytic Detection System and Nano-Glo® HiBit Blotting System were purchased from Promega (#N3050 and #N2410) and used according to manufacturer instructions.
To create the MiaPaCa-2 HiBit-KRAS^G12C cell line, CRISPR-Cas9 was used to insert the HiBit tag onto the N-terminus of one or more of the four endogenous KRAS^G12C alleles. After knock-in of the tag, individual clones were isolated by single cell dilution and screened for HiBit insertion by PCR. Clones containing the HiBit tag were sequenced and one was identified that contained the desired HiBit-KRAS^G12C sequence at one allele while the remaining three KRAS^G12C alleles were unaffected. This line was used for all subsequent studies.
Either SW1573 HiBit-KRas^G12C or MiaPaCa-2 HiBit-KRas^G12C cells were plated at 9000 cells/well in a 384 well plate (Corning #3770). Exemplary heterobifunctional molecules and positive controls were diluted in the appropriate cell media and applied to the plated cells resulting in a final concentration titration of 10 μM to 20 nM in either 0.1% or 0.5% dimethyl sulfoxide (DMSO). Gambogic acid was used as a positive control for cytotoxicity and titrated from 10 μM to 78 nM. All assays were performed in triplicate. Cells were treated with compounds for 24 hours at 37° C. in an incubator containing 5% CO2. Following treatment, alamar blue was used to determine if any compounds led to a loss in cell viability after 24 hours. The 10× alamar blue reagent was added to a final concentration of 1× as recommended by the manufacturer and cells were returned to the incubator for 4 hours. Plates were then allowed to equilibrate to room temperature and fluorescence was measured using a Perkin-Elmer EnVision. After completion of the fluorescence read, the liquid from each well was removed and the cells were washed with PBS. The Nano-Glo® HiBiT detection reagent was prepared according to the manufacturer's instructions and added to each well after the PBS wash was removed. Following incubation at room temperature for 45 minutes, the luminescence was read using the ultra-sensitive luminescence aperture on the Envision instrument.
Fluorescence values from the alamar blue treatment were normalized to the DMSO only control for each compound titration. We hypothesized that compounds that led to a ≥50% loss in cell viability of the KRAS-independent SW1573 HiBit-KRas^G12C cells were likely generally cytotoxic and loss of HiBit-KRAS^G12C signal from these compounds may be due to lower cell number and not specific KRAS^G12C degradation. These points were therefore excluded from the data analysis for degradation. […]

[3] = SW1573, SW1573 HiBit-KRas^G12C, read-out: KRas^G12C-HiBit (SW1573; 0.1% DMSO) Dmax**

| SMILES | Dmax (HiBit-KRAS^G12C [1]; SW1573, read-out: KRas^G12C-HiBit (SW1573; 0.1% DMSO) Dmax**, SW1573 HiBit-KRas^G12C) [%] | DC50 (HiBit-KRAS^G12C [1]; SW1573 HiBit-KRas^G12C) [nM] | Dmax (HiBit-KRAS^G12C [2]) [%] | Dmax (HiBit-KRAS^G12C [1]; [3]) [%] |
| --- | --- | --- | --- | --- |
| C=CC(=O)N1CCN(c2nc(O[C@H](C)CN3CC(CN4CCN(CC(=O)N[C@H](C(=O)N5C[C@H](O)C[C@H]5C(=O)N[C@@H](C)c5ccc(-c6scnc6C)cc5)C(C)(C)C)CC4)C3)nc3c(F)c(-c4cc(O)cc5ccccc45)c(Cl)cc23)CC1 [Compound 59, (2S,4R)-1-[(2S)-2-{2-[4-({1-[(2R)-2-{[6-chloro-8-fluoro-7-(3-hydroxynaphthalen-1-yl)-4-[4-(prop-2-enoyl)piperazin-1-yl]quinazolin-2-yl]oxy}propyl]azetidin-3-yl}methyl)piperazin-1-yl]acetamido}-3,3-dimethylbutanoyl]-4-hydroxy-N-[(1S)-1-[4-(4-methyl-1,3-thiazol-5-yl)phenyl]ethyl]pyrrolidine-2-carboxamide] | 35 to 70 | > 1000 | < 35 |  |
| C=CC(=O)N1CCN(c2nc(O[C@H](C)CN3CCC(OCCOCCOCCOCCOc4cc(-c5scnc5C)ccc4CNC(=O)[C@@H]4C[C@@H](O)CN4C(=O)[C@@H](c4cc(C)no4)C(C)C)CC3)nc3c(F)c(-c4cc(O)cc5ccccc45)c(Cl)cc23)CC1 [Compound 76, (2S,4R)-N-({2-[2-(2-{2-[2-({1-[(2R)-2-{[6-chloro-8-fluoro-7-(3-hydroxynaphthalen-1-yl)-4-[4-(prop-2-enoyl)piperazin-1-yl]quinazolin-2-yl]oxy}propyl]piperidin-4-yl}oxy)ethoxy]ethoxy}ethoxy)ethoxy]-4-(4-methyl-1,3-thiazol-5-yl)phenyl}methyl)-4-hydroxy-1-[(2R)-3-methyl-2-(3-methyl-1,2-oxazol-5-yl)butanoyl]pyrrolidine-2-carboxamide] |  | > 1000 |  |  |
| C=CC(=O)N1CCN(c2nc(O[C@H](C)CN3CCC(CN(C)[C@H]4C[C@@H](OCC(=O)N[C@H](C(=O)N5C[C@H](O)C[C@H]5C(=O)N[C@@H](C)c5ccc(-c6scnc6C)cc5)C(C)(C)C)C4)CC3)nc3c(F)c(-c4cc(O)cc5ccccc45)c(Cl)cc23)CC1 [Compound 47, (2S,4R)-1-[(2S)-3,3-dimethyl-2-(2-[(1s,3s)-3-[({1-[(2R)-2-{[6-chloro-8-fluoro-7-(3-hydroxynaphthalen-1-yl)-4-[4-(prop-2-enoyl)piperazin-1-yl]quinazolin-2-yl]oxy}propyl]piperidin-4-yl}methyl)(methyl)amino]cyclobutoxy]acetamido}butanoyl]-4-hydroxy-N-[(1S)-1-[4-(4-methyl-1,3-thiazol-5-yl)phenyl]ethyl]pyrrolidine-2-carboxamide] |  | > 1000 |  |  |
| C=CC(=O)N1CCN(c2nc(OC[C@@H]3C[C@@H](OCCOCCOCCOCCOCCOCCOCCOCCOCCOCCOCC(=O)N[C@H](C(=O)N4C[C@H](O)C[C@H]4C(=O)N[C@@H](C)c4ccc(-c5scnc5C)cc4)C(C)(C)C)CN3C)nc3c2CCN(c2cccc4ccccc24)C3)C[C@@H]1CC#N [Compound 73, (2S,4R)-1-[(2S)-2-(32-{[(3R,5S)-5-[({4-[(3S)-3-(cyanomethyl)-4-(prop-2-enoyl)piperazin-1-yl]-7-(naphthalen-1-yl)-5H,6H,7H,8H-pyrido[3,4-d]pyrimidin-2-yl}oxy)methyl]-1-methylpyrrolidin-3-yl]oxy}-3,6,9,12,15,18,21,24,27,30-decaoxadotriacontanamido)-3,3-dimethylbutanoyl]-4-hydroxy-N-[(1S)-1-[4-(4-methyl-1,3-thiazol-5-yl)phenyl]ethyl]pyrrolidine-2-carboxamide] |  | > 1000 |  |  |
| C=CC(=O)N1CCN(c2nc(O[C@H](C)CN3CCC(OCCOCC(=O)N[C@H](C(=O)N4C[C@H](O)C[C@H]4C(=O)N[C@@H](C)c4ccc(-c5scnc5C)cc4)C(C)(C)C)CC3)nc3c(Oc4c(Cl)c(F)cc5[nH]ncc45)nc(Cl)cc23)CC1 [Compound 26, (2S,4R)-1-[(2S)-2-{2-[2-({1-[(2R)-2-({6-chloro-8-[(5-chloro-6-fluoro-1H-indazol-4-yl)oxy]-4-[4-(prop-2-enoyl)piperazin-1-yl]pyrido[3,4-d]pyrimidin-2-yl}oxy)propyl]piperidin-4-yl}oxy)ethoxy]acetamido}-3,3-dimethylbutanoyl]-4-hydroxy-N-[(1S)-1-[4-(4-methyl-1,3-thiazol-5-yl)phenyl]ethyl]pyrrolidine-2-carboxamide] |  | > 1000 |  | 35 to 70 |
| C=CC(=O)N1CCN(c2nc(O[C@H](C)CN3CCC(OCCOCCOCCOCCOCCOc4cc(-c5scnc5C)ccc4CNC(=O)[C@@H]4C[C@@H](O)CN4C(=O)[C@@H](c4cc(C)no4)C(C)C)CC3)nc3c(F)c(-c4cc(O)cc5ccccc45)c(Cl)cc23)CC1 [Compound 80] |  | > 1000 |  | 35 to 70 |
| C=CC(=O)N1CCN(c2nc(O[C@H](C)CN3CCC(OCCOCCOCCOCCOCCOCCOCCOCCOCC(=O)N[C@H](C(=O)N4C[C@H](O)C[C@H]4C(=O)N[C@@H](C)c4ccc(-c5scnc5C)cc4)C(C)(C)C)CC3)nc3c(F)c(-c4cc(O)cc5ccccc45)c(Cl)cc23)CC1 [Compound 84, (2S,4R)-1-[(2S)-2-[26-({1-[(2R)-2-{[6-chloro-8-fluoro-7-(3-hydroxynaphthalen-1-yl)-4-[4-(prop-2-enoyl)piperazin-1-yl]quinazolin-2-yl]oxy}propyl]piperidin-4-yl}oxy)-3,6,9,12,15,18,21,24-octaoxahexacosanamido]-3,3-dimethylbutanoyl]-4-hydroxy-N-[(1S)-1-[4-(4-methyl-1,3-thiazol-5-yl)phenyl]ethyl]pyrrolidine-2-carboxamide] |  | > 1000 |  |  |
| C=CC(=O)N1CCN(c2nc(OCCN3CCC(OCCOc4cc([C@H](C(=O)N5C[C@@H](O)C[C@H]5C(=O)N[C@@H](C)c5ccc(-c6scnc6C)cc5)C(C)C)on4)CC3)nc3c(F)c(-c4cc(O)cc5ccccc45)c(Cl)cc23)C[C@@H]1CC#N [Compound 2, (2S,4S)-1-[(2R)-2-{3-[2-({1-[2-({6-chloro-4-[(3S)-3-(cyanomethyl)-4-(prop-2-enoyl)piperazin-1-yl]-8-fluoro-7-(3-hydroxynaphthalen-1-yl)quinazolin-2-yl}oxy)ethyl]piperidin-4-yl}oxy)ethoxy]-1,2-oxazol-5-yl}-3-methylbutanoyl]-4-hydroxy-N-[(1S)-1-[4-(4-methyl-1,3-thiazol-5-yl)phenyl]ethyl]pyrrolidine-2-carboxamide] |  | > 1000 |  |  |
| C=CC(=O)N1CCN(c2nc(OCCN3CCC(OCCOCC(=O)N[C@H](C(=O)N4C[C@H](O)C[C@H]4C(=O)N[C@@H](C)c4ccc(-c5scnc5C)cc4)C(C)(C)C)CC3)nc3c2CCN(c2cccc4cccc(C)c24)C3)C[C@@H]1CC#N [Compound 30, (2S,4R)-1-[(2S)-2-{2-[2-({1-[2-({4-[(3S)-3-(cyanomethyl)-4-(prop-2-enoyl)piperazin-1-yl]-7-(8-methylnaphthalen-1-yl)-5H,6H,7H,8H-pyrido[3,4-d]pyrimidin-2-yl}oxy)ethyl]piperidin-4-yl}oxy)ethoxy]acetamido}-3,3-dimethylbutanoyl]-4-hydroxy-N-[(1S)-1-[4-(4-methyl-1,3-thiazol-5-yl)phenyl]ethyl]pyrrolidine-2-carboxamide] |  | > 1000 |  | < 35 |
